1 compound from US5258286A, “Method of terminating isocitrate dehydrogenase reaction” (Oriental Yeast Co., Ltd., priority 1985, dated 1993) can be followed below.

Molecules are shown by their SMILES.

The subject of this assay is iCDH (isocitrate dehydrogenase). The settings on record: EDTA concentration of 5 mM; 0.4 mM MgCl2, 1.6 mM isocitric acid, 1 mM NADP+, 0.1M triethanolamine hydrochloride pH 8.5, 25° C.; FIG. 1. How it is done:
A varied amount of EDTA was added to 3 ml of a 0.1M triethanolamine hydrochloride solution (pH 8.5) containing the above-listed ingredients to provide an EDTA concentration of 0 to 10 mM. Each of the resulting mixtures was kept at a temperature of 25° C., and admixed with 20 μl of iCDH of about 3 u/ml, followed by measurement of the iCDH activity based on an increase in absorption at 340 nm by spectrophotometry.

As to `O=C(O)CN(CCN(CC(=O)O)CC(=O)O)CC(=O)O` [EDTA], the iCDH activity result is “completely loses its activity”.
